Values quoted from earlier work in patent US10632043B2, “Premix formulation for parenteral use and packaging thereof” (Aurobindo Pharma Ltd, priority 2015, dated 2020).
Like-named read-outs stand apart in the source and are kept apart here.

Conditions: for time stable: diluted to 4 mg/mL in 0.9% sodium chloride injection, polypropylene (PP) syringes

loss of drug potency (PP syringe, over 48 hours): about 5%
time stable (5° C.): 14 days
time stable (20-25° C.): 2 days
loss of drug concentration (syringes at room temperature, over 48 hours): < 10%
loss of drug concentration (syringes, refrigerated, over 14 days): < 5%
SMILES: Cc1cccc([C@H](C)c2cnc[nH]2)c1C [dexmedetomidine]
